Patent publication US5262417A, “Antibacterial quinolone compounds” (The Upjohn Company, priority 1991, dated 1993)
In brackets after ≈: the same amount, converted by molar mass. Read-outs that look alike come from different tables or passages of the source.

Columns and labels:
Test in all cases: Minimum inhibitory concentration (MIC) by agar dilution
Type in all cases: cell-based
Enterobacter cloacae = tested on: Enterobacter cloacae
Procedure: (§1) Briefly, MIC values are determined in unsupplemented Mueller Hinton Agar (MHA). The compounds tested are diluted serially into molten MHA at 47° C. The agar is poured into petri dishes and allowed to harden. The various bacteria used for testing are grown overnight on MHA at 35° C. and transferred to Trypticase soy broth (TSB) until a turbidity of 0.5 McFarland standard is obtained. The bacteria are diluted one to 20 in TSB and inoculated on the plates (1 μl using a Steers replicator).
as §1, with “Compounds of this invention can also be tested for in vitro antimicrobial activity using standard testing procedures such as the determination of minimum inhibitory concentration (MIC) by agar dilution as described in "Methods for Dilution Antimicrobial Susceptibility Tests for Bacteria That Grow Aerobically" (MFT) published Jan. […] Briefly,” for “Briefly,”, “(1μl” for “(1 μl”

Citerobacter freundii = tested on: Citerobacter freundii
Procedure: as §1, with “The antibacterial activity of the compounds of Formula IC was determined by using standard testing procedures such as the determination of minimum inhibitory concentration (MIC) by agar dilution as described in "Methods for Dilution Antimicrobial Susceptibility Tests for Bacteria That Grow Aerobically" (MFT) published January 1983 by the National Committee for Clinical Laboratory Standards, 771 East Lancaster Avenue, Villanova, Pa. 19084, USA. Briefly,” for “Briefly,”
(§2) Compounds of this invention can also be tested for in vitro antimicrobial activity using standard testing procedures such as the determination of minimum inhibitory concentration (MIC) by agar dilution as described in "Methods for Dilution Antimicrobial Susceptibility Tests for Bacteria That Grow Aerobically" (MFT) published Jan. 1983 by the National Committee for Clinical Laboratory Standards, 771 East Lancaster Avenue, Villanova, Penna. 19084, USA. Briefly, MIC values are determined in unsupplemented Mueller Hinton Agar (MHA). The compounds tested are diluted serially into molten MHA at 47° C. The agar is poured into petri dishes and allowed to harden. The various bacteria used for testing are grown overnight on MHA at 35° C. and transferred to Trypticase soy broth (TSB) until a turbidity of 0.5 McFarland standard is obtained. The bacteria are diluted one to 20 in TSB and inoculated on the plates (1μl using a Steers replicator). […] The MIC test results of selected of Formula B compounds of this invention are found in Tables B2-B9.

Escherichia coli = conditions: Escherichia coli
Procedure: (§3) The antibacterial activity of the compounds of Formula IC was determined by using standard testing procedures such as the determination of minimum inhibitory concentration (MIC) by agar dilution as described in "Methods for Dilution Antimicrobial Susceptibility Tests for Bacteria That Grow Aerobically" (MFT) published January 1983 by the National Committee for Clinical Laboratory Standards, 771 East Lancaster Avenue, Villanova, Pa. 19084, USA. Briefly, MIC values are determined in unsupplemented Mueller Hinton Agar (MHA). The compounds tested are diluted serially into molten MHA at 47° C. The agar is poured into petri dishes and allowed to harden. The various bacteria used for testing are grown overnight on MHA at 35° C. and transferred to Trypticase soy broth (TSB) until a turbidity of 0.5 McFarland standard is obtained. The bacteria are diluted one to 20 in TSB and inoculated on the plates (1 μl using a Steers replicator).
as §2

Proteus penneri = conditions: Proteus penneri
Procedure: as §3, §2

Streptococcus pyogenes = conditions: Streptococcus pyogenes
Procedure: as §3, §2

[1] = tested on: Acinetobacter calcoaceticus; conditions: Acinetobacter calcoaceticus
Procedure: as §3, §2

Streptococcus pneumoniae = conditions: Streptococcus pneumoniae
Procedure: as §3, §2

[2] = tested on: Staphylococcus epidermidis; conditions: 20 h
Procedure: as §3, §2

Streptococcus faecalis = conditions: Enterococcus faecalis
Procedure: as §3, §2

Staphylococcus aureus = conditions: Staphylococcus aureus
Procedure: as §3, §2

Klebsiella pneumoniae = tested on: Klebsiella pneumoniae
Procedure: as §3, §2

Serratia marcescens = conditions: 20 h, read-out: MINIMUM INHIBITORY CONCENTRATION
Procedure: as §3, §2

Pseudomonas aeruginosa = conditions: Pseudomonas aeruginosa
Procedure: as §3, §2

[3] = 20 h, read-out: MINIMUM INHIBITORY CONCENTRATION
[4] = 20 h, read-out: MINIMUM INHIBITORY CONCENTRATION, Cult No. 6674, MHA
[5] = 20 h, read-out: MINIMUM INHIBITORY CONCENTRATION, Cult No. 9451, MHA
[6] = 20 h, read-out: MINIMUM INHIBITORY CONCENTRATION, Cult No. 9855, MHA
[7] = 20 h, read-out: MINIMUM INHIBITORY CONCENTRATION, Cult No. 9952, MHA
[8] = 20 h, read-out: MINIMUM INHIBITORY CONCENTRATION, Cult No. 9679, MHA
[9] = 20 h, read-out: MINIMUM INHIBITORY CONCENTRATION, Cult No. 152, MHA
[10] = 20 h, read-out: MINIMUM INHIBITORY CONCENTRATION, Cult No. 12170, MHA
[11] = 20 h, read-out: MINIMUM INHIBITORY CONCENTRATION, Cult No. 41, MHA
[12] = read-out: MINIMUM INHIBITORY CONCENTRATION
[13] = 20 h, read-out: MINIMUM INHIBITORY CONCENTRATION, Cult No. 6685, MHA
[14] = 20 h, read-out: MINIMUM INHIBITORY CONCENTRATION, Cult No. 9213, MHA
[15] = 20 h, read-out: MINIMUM INHIBITORY CONCENTRATION, Cult No. 9218, MHA
[16] = 20 h, read-out: MINIMUM INHIBITORY CONCENTRATION, Cult No. 9271, MHA
[17] = 20 h, read-out: MINIMUM INHIBITORY CONCENTRATION, Cult No. 6676, MHA
[18] = 20 h, read-out: MINIMUM INHIBITORY CONCENTRATION, Cult No. 9191, MHA
[19] = 20 h, read-out: MINIMUM INHIBITORY CONCENTRATION, Cult No. 12120, MHA

Compound | MIC (Serratia marcescens) | MIC (Enterobacter cloacae; [3]) | MIC (Citerobacter freundii; [3]) | MIC (Escherichia coli; [4]) | MIC (Escherichia coli; [5]) | MIC (Escherichia coli; [6]) | MIC (Escherichia coli; [7]) | MIC (Proteus penneri; [8]) | MIC (Streptococcus pyogenes; [9]) | MIC [1, 10] | MIC (Streptococcus pneumoniae; [11]) | MIC [2, 12] | MIC (Streptococcus faecalis; [3]) | MIC (Staphylococcus aureus; [13]) | MIC (Staphylococcus aureus; [14]) | MIC (Staphylococcus aureus; [15]) | MIC (Staphylococcus aureus; [16]) | MIC (Klebsiella pneumoniae; [3]) | MIC (Pseudomonas aeruginosa; [17]) | MIC (Pseudomonas aeruginosa; [18]) | further results
C#CCn1cc(C(=O)O)c(=O)c2cc(F)c(N3CCNCC3)c(F)c21.CS(=O)(=O)O [C, (+,-)-6,8-difluoro-1,4-dihydro-4-oxo-7-(1-piperazinyl)-1-(2-propynyl)-3-quinolinecarboxylic acid methanesulfonate] | 0.25 µg/mL | – | – | – | – | – | – | – | – | – | – | – | – | – | – | – | – | – | – | – | MIC (Enterobacter cloacae; UC9382, 20 h, read-out: Minimum Inhibitory Concentration): 1 µg/mL; MIC (Citerobacter freundii; Citrobacter freundii, UC3507, 20 h, read-out: Minimum Inhibitory Concentration): 1 µg/mL; MIC (Escherichia coli; UC6674, 20 h, read-out: Minimum Inhibitory Concentration, E. coli UC 6674, Table CI): 1 µg/mL; MIC (Escherichia coli; UC9451, 20 h, read-out: Minimum Inhibitory Concentration, E. coli UC 9451, Table CI): 2 µg/mL; MIC (Escherichia coli; UC9855, 20 h, read-out: Minimum Inhibitory Concentration, E. coli UC 9855, Table CI): 2 µg/mL; MIC (Escherichia coli; UC9952, 20 h, read-out: Minimum Inhibitory Concentration, E. coli UC 9952, Table CI): 1 µg/mL; MIC (Proteus penneri; UC9679, 20 h, read-out: Minimum Inhibitory Concentration, P. penneri UC 9679, Table CI): 1 µg/mL; MIC (Streptococcus pyogenes; UC152, 20 h, read-out: Minimum Inhibitory Concentration, S. pyogenes UC 152, Table CI): 32 µg/mL; MIC ([1]; UC12170, 20 h, read-out: Minimum Inhibitory Concentration, A. calcoaceticus UC 12170, Table CI): 8 µg/mL; MIC (Streptococcus pneumoniae; UC41, 20 h, read-out: Minimum Inhibitory Concentration, S. pneumoniae UC 41, Table CI): > 64 µg/mL; MIC ([2]; read-out: Minimum Inhibitory Concentration): 16 µg/mL; MIC (Streptococcus faecalis; UC9217, 20 h, read-out: Minimum Inhibitory Concentration): > 64 µg/mL; MIC (Staphylococcus aureus; UC6685, 20 h, read-out: Minimum Inhibitory Concentration, S. aureus UC 6685, Table CI): 32 µg/mL; MIC (Staphylococcus aureus; UC9213, 20 h, read-out: Minimum Inhibitory Concentration, S. aureus UC 9213, Table CI): 32 µg/mL; MIC (Staphylococcus aureus; UC9218, 20 h, read-out: Minimum Inhibitory Concentration, S. aureus UC 9218, Table CI): 32 µg/mL; MIC (Staphylococcus aureus; UC9271, 20 h, read-out: Minimum Inhibitory Concentration, S. aureus UC 9271, Table CI): 32 µg/mL; MIC (Klebsiella pneumoniae; UC12081, 20 h, read-out: Minimum Inhibitory Concentration): 2 µg/mL; MIC (Pseudomonas aeruginosa; UC6676, 20 h, read-out: Minimum Inhibitory Concentration, Ps. aeruginosa UC 6676, Table CI): 16 µg/mL; MIC (Pseudomonas aeruginosa; UC9191, 20 h, read-out: Minimum Inhibitory Concentration, Ps. aeruginosa UC 9191, Table CI): 8 µg/mL; MIC (Pseudomonas aeruginosa; UC12120, 20 h, read-out: Minimum Inhibitory Concentration, Ps. aeruginosa UC 12120, Table CI): 8 µg/mL
O=C(O)c1cn(C23CC(C2)C3)c2c(F)c(N3CCNCC3)c(F)cc2c1=O [No. 1, 1-(bicyclo[1.1.1]pent-1-yl)-6,8-difluoro-1,4-dihydro-4-oxo-7-(1-piperazinyl)-3-quinolinecarboxylic acid] | 0.25 µg/mL (≈ 0.666 µM) | 0.06 µg/mL (≈ 0.16 µM) | 0.06 µg/mL (≈ 0.16 µM) | 0.06 µg/mL (≈ 0.16 µM) | 0.06 µg/mL (≈ 0.16 µM) | 0.06 µg/mL (≈ 0.16 µM) | 0.06 µg/mL (≈ 0.16 µM) | 0.5 µg/mL (≈ 1.33 µM) | 2 µg/mL (≈ 5.33 µM) | 0.25 µg/mL (≈ 0.666 µM) | 2 µg/mL (≈ 5.33 µM) | 0.25 µg/mL (≈ 0.666 µM) | 2 µg/mL (≈ 5.33 µM) | 0.5 µg/mL (≈ 1.33 µM) | 1 µg/mL (≈ 2.66 µM) | 0.5 µg/mL (≈ 1.33 µM) | 0.5 µg/mL (≈ 1.33 µM) | 0.125 µg/mL (≈ 0.333 µM) | 2 µg/mL (≈ 5.33 µM) | 1 µg/mL (≈ 2.66 µM) | MIC (Staphylococcus aureus; 20 h, read-out: MINIMUM INHIBITORY CONCENTRATION, Cult No. 3665, MHA): 0.5 µg/mL (≈ 1.33 µM); MIC (Pseudomonas aeruginosa; [19]): 1 µg/mL (≈ 2.66 µM)
O=C(O)c1cn(C23CC(C2)C3)c2cc(N3CCNCC3)c(F)cc2c1=O [No. 2, 1-(bicyclo[1.1.1]pent-1-yl)-1,4-dihydro-6-fluoro-4-oxo-7-(1-piperazinyl)-3-quinolinecarboxylic acid] | 0.5 µg/mL (≈ 1.4 µM) | 0.125 µg/mL (≈ 0.35 µM) | 0.06 µg/mL (≈ 0.168 µM) | 0.125 µg/mL (≈ 0.35 µM) | 0.125 µg/mL (≈ 0.35 µM) | 0.125 µg/mL (≈ 0.35 µM) | 0.125 µg/mL (≈ 0.35 µM) | 0.5 µg/mL (≈ 1.4 µM) | 2 µg/mL (≈ 5.6 µM) | 0.5 µg/mL (≈ 1.4 µM) | 4 µg/mL (≈ 11.2 µM) | 0.5 µg/mL (≈ 1.4 µM) | 4 µg/mL (≈ 11.2 µM) | 0.5 µg/mL (≈ 1.4 µM) | 1 µg/mL (≈ 2.8 µM) | 1 µg/mL (≈ 2.8 µM) | 1 µg/mL (≈ 2.8 µM) | 0.25 µg/mL (≈ 0.7 µM) | 4 µg/mL (≈ 11.2 µM) | 2 µg/mL (≈ 5.6 µM) | MIC (Pseudomonas aeruginosa; [19]): 1 µg/mL (≈ 2.8 µM)
